Assay results: PMC5243837, “The Effect of Selective D- or N^α-Methyl Arginine Substitution on the Activity of the Proline-Rich Antimicrobial Peptide, Chex1-Arg20” (Frontiers in Chemistry, 2017)
Like-named read-outs stand apart in the source and are kept apart here. Where a SMILES comes first, the peptide text is derived from it. [ ]: non-standard residue; d: D form. NMeR = CN[C@@H](CCCNC(=N)N)C(=O)O; Ac6c = NC1(C(=O)O)CCCCC1; Chex = not defined here

Tests used:
K. pneumoniae ATCC 13883 [1] = format: cell-based, Klebsiella pneumoniae; conditions: for Antibacterial activity, MIC: ATCC 13883; for Antibacterial activity against K. pneumoniae (in words): K. pneumoniae ATCC 13883 in MHB, compared with analog 1, Chex1-Arg20
Procedure: An antibacterial assay was undertaken to determine the minimal inhibitory concentration (MIC) as described previously (Li et al., [2015b]). The Gram-negative nosocomial bacterium, K. pneumoniae ATCC13883, was selected for testing the antibacterial activities of the Chex1-Arg20 analogs using 2.5 × 10^5 cells/ml in Mueller Hinton broth (MHB) at 37°C immediately prior to the determination of MIC.
Each Chex1-Arg20 analog was assayed against the nosocomial Gram-negative bacterium K. pneumoniae ATCC 13883. The results are shown in Table 2 in comparison with analog 1, Chex1-Arg20. […] This highlighted the importance of arginine-7 and its native L-configuration for characteristic antimicrobial activity.

K. pneumoniae ATCC 13883 [2] = conditions: previously reported, ref Li et al., 2015b; cited from earlier work
Source text: Table 2 Antibacterial activity, MIC (μM), of Chex1-Arg20 analogs against Gram-negative pathogen K. pneumoniae ATCC 13883. | column: 1^^*

[3] = cited from earlier work

| Molecule | Antibacterial activity, MIC (K. pneumoniae ATCC 13883 [1]) [µM] | Antibacterial activity against K. pneumoniae (in words) (K. pneumoniae ATCC 13883 [1]) | Antibacterial activity, MIC (K. pneumoniae ATCC 13883 [2]) [µM] | Degradation sites in vivo [3] |
| --- | --- | --- | --- | --- |
| CC(C)C[C@H](NC(=O)[C@@H]1CCCN1C(=O)[C@H](CCCNC(=N)N)NC(=O)[C@@H]1CCCN1C(=O)[C@H](CCCNC(=N)N)NC(=O)[C@@H]1CCCN1C(=O)[C@@H]1CCCN1C(=O)[C@H](CCCNC(=N)N)NC(=O)[C@@H]1CCCN1C(=O)[C@@H](NC(=O)[C@H](CCCNC(=N)N)NC(=O)C1(N)CCCCC1)C(C)C)C(=O)N[C@@H](Cc1ccc(O)cc1)C(=O)N1CCC[C@H]1C(=O)N[C@@H](CCCNC(=N)N)C(=O)N1CCC[C@H]1C(=O)N[C@@H](CCCCN)C(=O)N[C@@H](CC(=O)O)C(=O)N1CCC[C@H]1C(=O)N[C@@H](CCCNC(=N)N)C(N)=O [analog 8, reverse] (H-[Ac6c]RVPRPPRPRPLYPRPKDPR-NH2; N-terminus assumed) | >100 | no activity |  |  |
| CC(C)C[C@H](NC(=O)[C@H](Cc1ccc(O)cc1)NC(=O)[C@@H]1CCCN1C(=O)[C@H](N)CCCNC(=N)N)C(=O)N1CCC[C@H]1C(=O)N[C@@H](CCCNC(=N)N)C(=O)N1CCC[C@H]1C(=O)N[C@@H](CCCNC(=N)N)C(=O)N1CCC[C@H]1C(=O)N1CCC[C@H]1C(=O)N[C@@H](CCCNC(=N)N)C(=O)N1CCC[C@H]1C(=O)N[C@H](C(N)=O)C(C)C [analog 4, DR7(7–19)] (H-[dR]PYLPRPRPPRPV-NH2; N-terminus assumed) | >100 | no antibacterial activity |  |  |
| Chex1-Arg20 (Chex-RPDKPRPYLPRPRPPRPVR-NH2; reading uncertain) [analog 1, de novo designed proline-rich antimicrobial peptide, Chex-…-NH2] |  |  | 0.8 ± 0.1 |  |
| CC(C)C[C@H](NC(=O)[C@H](Cc1ccc(O)cc1)NC(=O)[C@@H]1CCCN1C(=O)[C@H](CCCNC(=N)N)NC(=O)[C@@H]1CCCN1C(=O)[C@H](CCCCN)NC(=O)[C@H](CC(=O)O)NC(=O)[C@@H]1CCCN1C(=O)[C@H](CCCNC(=N)N)NC(=O)C1(N)CCCCC1)C(=O)N1CCC[C@H]1C(=O)N[C@@H](CCCNC(=N)N)C(=O)N1CCC[C@H]1C(=O)N[C@@H](CCCNC(=N)N)C(=O)N1CCC[C@H]1C(=O)N1CCC[C@H]1C(=O)N[C@@H](CCCNC(=N)N)C(=O)N1CCC[C@H]1C(=O)N[C@H](C(=O)N[C@H](CCCNC(=N)N)C(N)=O)C(C)C [analog 6, DR20] (H-[Ac6c]RPDKPRPYLPRPRPPRPV[dR]-NH2; N-terminus assumed) | 11.8 ± 0.1 |  |  |  |
| CC(C)C[C@H](NC(=O)[C@H](Cc1ccc(O)cc1)NC(=O)[C@@H]1CCCN1C(=O)[C@H](CCCNC(=N)N)NC(=O)[C@@H]1CCCN1C(=O)[C@H](CCCCN)NC(=O)[C@H](CC(=O)O)NC(=O)[C@@H]1CCCN1C(=O)[C@H](CCCNC(=N)N)NC(=O)C1(N)CCCCC1)C(=O)N1CCC[C@H]1C(=O)N[C@@H](CCCNC(=N)N)C(=O)N1CCC[C@H]1C(=O)N[C@@H](CCCNC(=N)N)C(=O)N1CCC[C@H]1C(=O)N1CCC[C@H]1C(=O)N[C@@H](CCCNC(=N)N)C(=O)N1CCC[C@H]1C(=O)N[C@H](C(=O)N(C)[C@@H](CCCNC(=N)N)C(N)=O)C(C)C [analog 7, mR20] (H-[Ac6c]RPDKPRPYLPRPRPPRPV[NMeR]-NH2; N-terminus assumed) | 14.5 ± 0.1 |  |  |  |
| CC(C)C[C@H](NC(=O)[C@H](Cc1ccc(O)cc1)NC(=O)[C@@H]1CCCN1C(=O)[C@@H](CCCNC(=N)N)NC(=O)[C@@H]1CCCN1C(=O)[C@H](CCCCN)NC(=O)[C@H](CC(=O)O)NC(=O)[C@@H]1CCCN1C(=O)[C@H](CCCNC(=N)N)NC(=O)C1(N)CCCCC1)C(=O)N1CCC[C@H]1C(=O)N[C@@H](CCCNC(=N)N)C(=O)N1CCC[C@H]1C(=O)N[C@@H](CCCNC(=N)N)C(=O)N1CCC[C@H]1C(=O)N1CCC[C@H]1C(=O)N[C@@H](CCCNC(=N)N)C(=O)N1CCC[C@H]1C(=O)N[C@H](C(=O)N[C@@H](CCCNC(=N)N)C(N)=O)C(C)C [analog 2, DR7] (H-[Ac6c]RPDKP[dR]PYLPRPRPPRPVR-NH2; N-terminus assumed) | >100 | substantial loss of activity |  |  |
| A3-APO |  |  |  | degradation at positions Pro6-Arg7 and Val19-Arg20 |
| CC(C)C[C@H](NC(=O)[C@H](Cc1ccc(O)cc1)NC(=O)[C@@H]1CCCN1C(=O)[C@@H](CCCNC(=N)N)NC(=O)[C@@H]1CCCN1C(=O)[C@H](CCCCN)NC(=O)[C@H](CC(=O)O)NC(=O)[C@@H]1CCCN1C(=O)[C@H](CCCNC(=N)N)NC(=O)C1(N)CCCCC1)C(=O)N1CCC[C@H]1C(=O)N[C@@H](CCCNC(=N)N)C(=O)N1CCC[C@H]1C(=O)N[C@@H](CCCNC(=N)N)C(=O)N1CCC[C@H]1C(=O)N1CCC[C@H]1C(=O)N[C@@H](CCCNC(=N)N)C(=O)N1CCC[C@H]1C(=O)N[C@H](C(N)=O)C(C)C [analog 5, Chex1-Val19] (H-[Ac6c]RPDKP[dR]PYLPRPRPPRPV-NH2; N-terminus assumed) | 36.1 ± 0.6 | partially restored activity |  |  |
